According to patent US20100137449A1, “SUBSTITUTED 1,3-CYCLOPENTADIONE MULTI-TARGET PROTEIN KINASE MODULATORS OF CANCER, ANGIOGENESIS AND THE INFLAMMATORY PATHWAYS ASSOCIATED THEREWITH” (METAPROTEOMICS, LLC, priority 2007, published 2010):

Key:
Experiment in all cases: KinaseProfiler Assay
[1] = target: Flt4(h) (Homo sapiens, UniProt P35916)
[2] = target: Rsk2(h) (Homo sapiens, UniProt P51812)
[3] = target: T1, Itk(h) (Homo sapiens, UniProt Q08881)
T1 sequence (Q08881 1-620): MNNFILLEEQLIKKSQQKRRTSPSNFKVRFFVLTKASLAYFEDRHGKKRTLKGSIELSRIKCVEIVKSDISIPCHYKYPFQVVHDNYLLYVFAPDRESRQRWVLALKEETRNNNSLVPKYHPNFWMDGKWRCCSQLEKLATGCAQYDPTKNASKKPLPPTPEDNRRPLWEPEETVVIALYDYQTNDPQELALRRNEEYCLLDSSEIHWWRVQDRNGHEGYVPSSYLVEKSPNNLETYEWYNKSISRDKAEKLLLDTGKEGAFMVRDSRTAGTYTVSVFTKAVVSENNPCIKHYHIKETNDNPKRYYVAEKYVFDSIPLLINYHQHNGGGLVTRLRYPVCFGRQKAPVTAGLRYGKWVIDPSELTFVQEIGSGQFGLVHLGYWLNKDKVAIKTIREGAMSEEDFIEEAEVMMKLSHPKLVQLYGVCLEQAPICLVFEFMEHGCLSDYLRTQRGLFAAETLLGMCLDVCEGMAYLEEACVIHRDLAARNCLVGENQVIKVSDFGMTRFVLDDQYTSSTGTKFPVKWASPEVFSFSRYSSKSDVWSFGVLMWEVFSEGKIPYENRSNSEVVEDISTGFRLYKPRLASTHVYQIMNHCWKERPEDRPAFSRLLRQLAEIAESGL

[4] = target: CK1γ3(h) (Homo sapiens, UniProt Q9Y6M4)
[5] = target: MSK1(h) (Homo sapiens, UniProt O75582)
[6] = target: Fes(h) (Homo sapiens, UniProt P07332)
[7] = target: FGFR1(V561M)(h) (Homo sapiens, UniProt P11362, V561M)
[8] = target: T2, TSSK1(h) (Homo sapiens, UniProt Q9BXA7)
T2 sequence (Q9BXA7 1-367): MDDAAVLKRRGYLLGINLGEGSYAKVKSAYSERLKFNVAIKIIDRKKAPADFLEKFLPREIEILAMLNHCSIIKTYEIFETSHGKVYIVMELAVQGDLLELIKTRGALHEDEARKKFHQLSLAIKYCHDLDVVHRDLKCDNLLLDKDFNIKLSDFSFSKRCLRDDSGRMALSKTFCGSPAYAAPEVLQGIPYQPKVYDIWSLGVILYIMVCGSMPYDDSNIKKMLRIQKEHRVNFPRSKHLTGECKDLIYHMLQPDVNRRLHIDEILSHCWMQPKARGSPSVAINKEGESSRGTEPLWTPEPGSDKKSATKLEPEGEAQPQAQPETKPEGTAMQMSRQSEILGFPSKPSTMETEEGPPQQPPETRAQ

[9] = target: IR(h) (Homo sapiens, UniProt P06213)
[10] = target: T3, IKKβ(h) (Homo sapiens, UniProt O14920)
T3 sequence (O14920 1-756): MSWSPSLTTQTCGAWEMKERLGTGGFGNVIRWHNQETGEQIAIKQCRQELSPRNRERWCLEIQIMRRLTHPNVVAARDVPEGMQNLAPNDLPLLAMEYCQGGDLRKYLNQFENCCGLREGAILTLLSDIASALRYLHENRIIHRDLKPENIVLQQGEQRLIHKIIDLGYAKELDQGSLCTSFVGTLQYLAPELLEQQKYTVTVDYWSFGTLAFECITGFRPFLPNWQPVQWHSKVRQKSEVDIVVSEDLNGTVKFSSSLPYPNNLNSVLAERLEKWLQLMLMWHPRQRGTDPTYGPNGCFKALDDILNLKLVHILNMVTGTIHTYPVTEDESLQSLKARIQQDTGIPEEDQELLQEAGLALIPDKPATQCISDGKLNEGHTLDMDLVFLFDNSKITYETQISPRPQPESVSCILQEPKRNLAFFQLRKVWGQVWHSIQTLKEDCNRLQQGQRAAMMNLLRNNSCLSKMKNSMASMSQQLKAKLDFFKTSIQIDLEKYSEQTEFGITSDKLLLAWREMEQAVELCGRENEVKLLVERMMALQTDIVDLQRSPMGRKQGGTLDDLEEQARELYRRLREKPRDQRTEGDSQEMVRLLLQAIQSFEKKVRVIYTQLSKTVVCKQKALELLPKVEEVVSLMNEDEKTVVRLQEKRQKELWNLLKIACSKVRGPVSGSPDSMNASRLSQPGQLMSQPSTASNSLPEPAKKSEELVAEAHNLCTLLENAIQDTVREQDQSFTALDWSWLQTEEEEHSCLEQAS

Sequence of MSK1(h) (O75582 whole entry): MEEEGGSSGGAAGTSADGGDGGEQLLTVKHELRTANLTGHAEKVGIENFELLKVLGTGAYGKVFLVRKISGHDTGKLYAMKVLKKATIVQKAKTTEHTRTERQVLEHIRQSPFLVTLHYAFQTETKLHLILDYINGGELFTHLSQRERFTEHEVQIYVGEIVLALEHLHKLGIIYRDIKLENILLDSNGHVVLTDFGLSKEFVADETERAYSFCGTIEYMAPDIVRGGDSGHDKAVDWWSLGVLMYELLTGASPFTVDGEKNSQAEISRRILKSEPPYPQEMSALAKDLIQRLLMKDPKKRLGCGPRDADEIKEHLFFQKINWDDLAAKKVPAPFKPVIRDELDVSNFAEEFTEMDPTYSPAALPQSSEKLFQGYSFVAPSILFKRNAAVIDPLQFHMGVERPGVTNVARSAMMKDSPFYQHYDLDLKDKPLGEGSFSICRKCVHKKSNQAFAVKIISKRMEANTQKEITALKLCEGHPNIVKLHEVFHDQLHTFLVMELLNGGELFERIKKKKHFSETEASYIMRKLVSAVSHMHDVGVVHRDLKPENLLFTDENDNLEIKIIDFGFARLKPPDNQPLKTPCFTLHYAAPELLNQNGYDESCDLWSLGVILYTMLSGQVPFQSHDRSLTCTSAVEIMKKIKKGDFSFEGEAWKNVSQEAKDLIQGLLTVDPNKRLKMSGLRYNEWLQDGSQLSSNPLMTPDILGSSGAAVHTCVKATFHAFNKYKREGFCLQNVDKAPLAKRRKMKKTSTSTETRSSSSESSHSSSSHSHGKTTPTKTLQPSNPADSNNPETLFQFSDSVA
Sequence of FGFR1(V561M)(h) (P11362 22-822 V561M): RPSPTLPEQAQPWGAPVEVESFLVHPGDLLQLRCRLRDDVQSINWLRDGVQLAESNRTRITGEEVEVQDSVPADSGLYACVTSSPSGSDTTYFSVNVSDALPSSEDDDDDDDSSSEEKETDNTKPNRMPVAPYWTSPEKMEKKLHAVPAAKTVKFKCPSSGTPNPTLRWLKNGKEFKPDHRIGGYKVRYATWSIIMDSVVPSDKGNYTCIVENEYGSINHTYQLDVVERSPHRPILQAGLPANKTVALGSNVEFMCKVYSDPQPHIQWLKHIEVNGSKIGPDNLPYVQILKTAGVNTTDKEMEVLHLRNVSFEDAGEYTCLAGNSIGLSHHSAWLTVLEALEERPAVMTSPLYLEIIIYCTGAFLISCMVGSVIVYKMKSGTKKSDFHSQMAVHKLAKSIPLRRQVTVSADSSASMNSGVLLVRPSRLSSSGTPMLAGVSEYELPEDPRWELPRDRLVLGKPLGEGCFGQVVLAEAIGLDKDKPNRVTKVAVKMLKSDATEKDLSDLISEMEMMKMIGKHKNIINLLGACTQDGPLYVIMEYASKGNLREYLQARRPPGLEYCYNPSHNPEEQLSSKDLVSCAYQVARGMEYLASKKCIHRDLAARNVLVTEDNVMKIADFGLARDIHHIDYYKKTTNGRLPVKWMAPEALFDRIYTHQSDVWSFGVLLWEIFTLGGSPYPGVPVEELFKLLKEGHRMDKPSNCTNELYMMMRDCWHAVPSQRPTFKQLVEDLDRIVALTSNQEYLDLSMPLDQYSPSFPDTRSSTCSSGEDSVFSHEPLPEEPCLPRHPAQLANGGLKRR
Sequence of Fes(h) (P07332 whole entry): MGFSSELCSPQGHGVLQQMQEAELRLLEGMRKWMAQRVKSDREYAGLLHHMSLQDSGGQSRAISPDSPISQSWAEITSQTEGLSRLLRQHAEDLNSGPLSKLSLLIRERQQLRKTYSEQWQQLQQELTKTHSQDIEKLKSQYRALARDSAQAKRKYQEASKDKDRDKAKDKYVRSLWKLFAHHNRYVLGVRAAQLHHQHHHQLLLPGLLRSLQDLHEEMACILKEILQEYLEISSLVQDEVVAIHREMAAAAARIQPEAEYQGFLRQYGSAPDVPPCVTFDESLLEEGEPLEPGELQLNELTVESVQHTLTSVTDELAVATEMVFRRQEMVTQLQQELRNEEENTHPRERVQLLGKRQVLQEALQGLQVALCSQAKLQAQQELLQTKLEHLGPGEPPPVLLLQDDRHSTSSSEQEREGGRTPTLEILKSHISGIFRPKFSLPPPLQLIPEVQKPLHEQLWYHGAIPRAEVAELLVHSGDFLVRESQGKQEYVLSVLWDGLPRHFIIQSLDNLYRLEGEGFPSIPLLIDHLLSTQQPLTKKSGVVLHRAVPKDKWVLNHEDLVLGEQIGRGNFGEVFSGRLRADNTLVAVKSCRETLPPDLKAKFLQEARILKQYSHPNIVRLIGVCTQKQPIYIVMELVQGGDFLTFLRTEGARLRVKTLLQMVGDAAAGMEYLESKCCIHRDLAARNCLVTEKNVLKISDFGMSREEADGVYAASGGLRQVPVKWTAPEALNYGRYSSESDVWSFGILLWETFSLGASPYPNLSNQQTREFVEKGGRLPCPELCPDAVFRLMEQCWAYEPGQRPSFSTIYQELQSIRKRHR
Sequence of IR(h) (P06213 28-1382): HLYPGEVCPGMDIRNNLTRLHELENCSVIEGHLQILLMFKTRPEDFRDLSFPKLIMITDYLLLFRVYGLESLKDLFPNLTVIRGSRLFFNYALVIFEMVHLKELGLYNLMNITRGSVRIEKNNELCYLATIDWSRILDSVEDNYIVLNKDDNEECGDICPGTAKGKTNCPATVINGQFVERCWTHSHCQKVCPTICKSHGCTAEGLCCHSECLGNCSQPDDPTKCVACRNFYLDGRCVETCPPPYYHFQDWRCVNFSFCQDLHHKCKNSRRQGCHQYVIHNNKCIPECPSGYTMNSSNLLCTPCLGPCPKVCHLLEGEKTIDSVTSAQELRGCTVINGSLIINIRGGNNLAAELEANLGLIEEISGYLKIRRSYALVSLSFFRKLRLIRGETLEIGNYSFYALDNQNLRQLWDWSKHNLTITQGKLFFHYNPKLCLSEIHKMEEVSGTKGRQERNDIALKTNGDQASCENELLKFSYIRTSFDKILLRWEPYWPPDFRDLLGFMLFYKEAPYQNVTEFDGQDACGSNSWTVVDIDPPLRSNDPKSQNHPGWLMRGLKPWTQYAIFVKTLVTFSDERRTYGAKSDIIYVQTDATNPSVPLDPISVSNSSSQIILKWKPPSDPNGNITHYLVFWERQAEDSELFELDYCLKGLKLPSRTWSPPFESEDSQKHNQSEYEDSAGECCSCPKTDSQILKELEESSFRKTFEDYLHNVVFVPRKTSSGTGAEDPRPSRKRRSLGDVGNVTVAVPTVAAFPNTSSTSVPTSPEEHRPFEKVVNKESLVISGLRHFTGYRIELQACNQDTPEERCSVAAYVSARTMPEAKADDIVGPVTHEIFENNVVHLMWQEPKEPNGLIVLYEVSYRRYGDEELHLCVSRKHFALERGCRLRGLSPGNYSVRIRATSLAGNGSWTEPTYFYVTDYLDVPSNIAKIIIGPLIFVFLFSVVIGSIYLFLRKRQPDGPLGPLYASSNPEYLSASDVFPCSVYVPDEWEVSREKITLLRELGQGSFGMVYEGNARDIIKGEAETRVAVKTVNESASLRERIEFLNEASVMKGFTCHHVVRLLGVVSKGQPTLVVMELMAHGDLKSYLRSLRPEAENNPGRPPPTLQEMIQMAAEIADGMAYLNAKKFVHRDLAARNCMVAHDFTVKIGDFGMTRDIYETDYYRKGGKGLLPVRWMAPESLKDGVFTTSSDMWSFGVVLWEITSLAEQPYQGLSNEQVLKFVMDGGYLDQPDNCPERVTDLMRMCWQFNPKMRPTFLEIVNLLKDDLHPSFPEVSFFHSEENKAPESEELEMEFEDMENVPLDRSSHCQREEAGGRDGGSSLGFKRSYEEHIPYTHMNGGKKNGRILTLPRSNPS
Sequence of Flt4(h) (P35916 25-1363): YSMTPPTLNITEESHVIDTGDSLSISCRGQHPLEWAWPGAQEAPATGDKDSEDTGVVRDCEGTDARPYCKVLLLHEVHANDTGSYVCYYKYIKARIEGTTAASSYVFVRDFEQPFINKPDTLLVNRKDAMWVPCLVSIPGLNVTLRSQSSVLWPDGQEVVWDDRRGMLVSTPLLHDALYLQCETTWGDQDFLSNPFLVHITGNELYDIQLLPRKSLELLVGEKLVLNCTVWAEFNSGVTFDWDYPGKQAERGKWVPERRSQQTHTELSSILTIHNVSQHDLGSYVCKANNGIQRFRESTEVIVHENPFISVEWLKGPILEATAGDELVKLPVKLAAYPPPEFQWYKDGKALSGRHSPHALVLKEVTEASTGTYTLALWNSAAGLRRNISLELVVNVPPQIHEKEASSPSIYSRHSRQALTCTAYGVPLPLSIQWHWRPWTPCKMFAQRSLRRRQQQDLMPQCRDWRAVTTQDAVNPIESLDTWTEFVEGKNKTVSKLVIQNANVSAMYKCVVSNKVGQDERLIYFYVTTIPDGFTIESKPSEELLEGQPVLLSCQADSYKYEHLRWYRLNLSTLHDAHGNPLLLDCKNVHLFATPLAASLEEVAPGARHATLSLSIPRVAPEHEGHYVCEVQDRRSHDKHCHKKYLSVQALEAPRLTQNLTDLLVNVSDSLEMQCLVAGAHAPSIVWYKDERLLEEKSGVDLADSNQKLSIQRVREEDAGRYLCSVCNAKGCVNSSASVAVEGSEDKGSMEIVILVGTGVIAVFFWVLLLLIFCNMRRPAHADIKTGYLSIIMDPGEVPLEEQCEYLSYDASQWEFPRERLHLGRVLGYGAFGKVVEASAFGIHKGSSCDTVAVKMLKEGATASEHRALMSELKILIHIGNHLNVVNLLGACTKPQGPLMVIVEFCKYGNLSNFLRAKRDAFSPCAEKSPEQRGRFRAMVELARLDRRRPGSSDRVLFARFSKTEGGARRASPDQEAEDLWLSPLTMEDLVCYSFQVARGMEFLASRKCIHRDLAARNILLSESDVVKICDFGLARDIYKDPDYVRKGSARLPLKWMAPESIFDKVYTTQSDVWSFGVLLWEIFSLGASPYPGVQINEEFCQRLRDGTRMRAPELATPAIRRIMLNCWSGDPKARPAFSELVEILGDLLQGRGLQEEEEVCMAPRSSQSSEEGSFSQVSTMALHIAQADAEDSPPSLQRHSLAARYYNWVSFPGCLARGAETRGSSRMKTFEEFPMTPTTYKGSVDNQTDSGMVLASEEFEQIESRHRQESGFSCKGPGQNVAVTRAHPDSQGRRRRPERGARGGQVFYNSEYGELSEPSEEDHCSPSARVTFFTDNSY

In the case of `CC(C)CCC(=O)[C@]1(O)C(O)=C(C(=O)C(C)C)C(=O)[C@H]1CCC(C)C` [TH2, tetrahydroiso-cohumulone], the kinase inhibition ([1]; 1 μg/ml) is reported as 117% of control, the kinase inhibition ([1]; 5 μg/ml) is reported as 113% of control and the kinase inhibition ([1]; 25 μg/ml) is reported as 88% of control. The kinase inhibition ([1]; 50 μg/ml) was 80% of control, the kinase inhibition ([1]; 100 μg/ml) was 55% of control and the kinase inhibition ([2]; 1 μg/ml) was 102% of control. For the same compound, the kinase inhibition ([2]; 5 μg/ml) was 100% of control, the kinase inhibition ([2]; 25 μg/ml) was 81% of control and the kinase inhibition ([2]; 50 μg/ml) was 43% of control. The kinase inhibition ([2]; 100 μg/ml) was 32% of control, the kinase inhibition ([3]; 1 μg/ml) was 101% of control and the kinase inhibition ([3]; 5 μg/ml) was 103% of control. The kinase inhibition ([3]; 25 μg/ml) was 87% of control, the kinase inhibition ([3]; 50 μg/ml) was 82% of control and the kinase inhibition ([3]; 100 μg/ml) was 87% of control. For the same compound, the kinase inhibition ([4]; 1 μg/ml) was 96% of control, the kinase inhibition ([4]; 5 μg/ml) was 91% of control and the kinase inhibition ([4]; 25 μg/ml) was 83% of control. The kinase inhibition ([4]; 50 μg/ml) was 43% of control, the kinase inhibition ([4]; 100 μg/ml) was 34% of control and the kinase inhibition ([5]; 1 μg/ml) was 98% of control. For the same compound, the kinase inhibition ([5]; 5 μg/ml) was 103% of control, the kinase inhibition ([5]; 25 μg/ml) was 92% of control and the kinase inhibition ([5]; 50 μg/ml) was 64% of control. For the same compound, the kinase inhibition ([5]; 100 μg/ml) was 52% of control, the kinase inhibition ([6]; 1 μg/ml) was 140% of control and the kinase inhibition ([6]; 5 μg/ml) was 120% of control. For the same compound, the kinase inhibition ([6]; 25 μg/ml) was 105% of control, the kinase inhibition ([6]; 50 μg/ml) was 99% of control and the kinase inhibition ([6]; 100 μg/ml) was 86% of control. For the same compound, the kinase inhibition ([7]; 1 μg/ml) was 105% of control, the kinase inhibition ([7]; 5 μg/ml) was 107% of control and the kinase inhibition ([7]; 25 μg/ml) was 95% of control. The kinase inhibition ([7]; 50 μg/ml) was 79% of control, the kinase inhibition ([7]; 100 μg/ml) was 75% of control and the kinase inhibition ([8]; 1 μg/ml) was 105% of control. The kinase inhibition ([8]; 5 μg/ml) was 97% of control, the kinase inhibition ([8]; 25 μg/ml) was 96% of control and the kinase inhibition ([8]; 50 μg/ml) was 91% of control. The kinase inhibition ([8]; 100 μg/ml) was 86% of control, the kinase inhibition ([9]; 1 μg/ml) was 96% of control and the kinase inhibition ([9]; 5 μg/ml) was 100% of control. The kinase inhibition ([9]; 25 μg/ml) was 80% of control, the kinase inhibition ([9]; 50 μg/ml) was 75% of control and the kinase inhibition ([9]; 100 μg/ml) was 79% of control. The kinase inhibition ([10]; 1 μg/ml) was 111% of control, the kinase inhibition ([10]; 5 μg/ml) was 107% of control and the kinase inhibition ([10]; 25 μg/ml) was 94% of control. For the same compound, the kinase inhibition ([10]; 50 μg/ml) was 77% of control and the kinase inhibition ([10]; 100 μg/ml) was 76% of control.
